We go through one molecule from patent publication US20090221082A1, “Microfluidic Evaporators And Determining Physical And/Or Chemical Properties Of Chemical Compounds Therewith” (Rhodia Operations, priority 2005, published 2009).

This data set can be described thus: Evaporation-induced nucleation and crystal growth of KCl aqueous solutions in microchannel fingers. In kind it is physicochemical. The text has this:
The devices used are two-layer PDMS on glass Microsystems (FIG. 1). The microchannels (flowing channel(s)) of the bottom layer are filled with the solution of interest, while air is circulated through the microchannels (evaporation chamber) of the top layer so as to remove the water that pervaporates through the thin membrane of PDMS that separate the two networks where they overlap (thickness e in the 10-30 μm range). Many combinations of geometries for the bottom and top networks can be envisaged. We focus here on the simple “finger” geometry of FIG. 1, a dead end (blind extremity) channel of rectangular cross section (height h, width w, length L) connected to a larger (millimetric) feeding reservoir containing the solution to be concentrated. A terminal section of length L0<L (typically mms to cms) is covered by the water removal network. The operation principle is simple: water in the bottom channel pervaporates through the thin membrane, which induces a compensating flow from the reservoir and concentration of solutes at the finger tip. […]
FIG. 11: Top: view of the chip with 15 microchannels with different evaporation lengths L0 (the bottom of the frame is the end of the evaporation zone). […] Crystal growth is then monitored xf(t). […]

In the case of `[Cl-].[K+]` [KCl, potassium chloride], the nucleation concentration cc (KCl aqueous solution, at this temperature) was determined as 4.0 ± 0.5 M. The “solute concentration cx in the growing crystal (crystal density)” value (from initial crystal growth rate and mass conservation, Te=800±50 s) was 20 ± 2 M.
